{"source": "paper PMC6739329", "about": "(Scientific Reports, 2019)", "key": {"[1]": {"tested_on": "HEK293 cells", "assay": "Morphology of HEK293 cells treated 15 h with salicylates", "type": "cell-based, human", "details": "15 h treatment", "from_the_text": "Data are mean ± SD (n = 3). […] Scale bar = 20 μm.\nchanges in HEK293 cells. Scale bar = 50 μm.\nchanges of HEK293 cells. Scale bar = 50 μm."}, "[2]": {"target": "T1, PKM2 (Homo sapiens, UniProt P14618)", "T1 construct": "each gene was amplified and cloned into pET28a vector for recombinant protein production; 6xHis; made in house; host or cells: Escherichia coli BL21", "T1 sequence (P14618 whole entry)": "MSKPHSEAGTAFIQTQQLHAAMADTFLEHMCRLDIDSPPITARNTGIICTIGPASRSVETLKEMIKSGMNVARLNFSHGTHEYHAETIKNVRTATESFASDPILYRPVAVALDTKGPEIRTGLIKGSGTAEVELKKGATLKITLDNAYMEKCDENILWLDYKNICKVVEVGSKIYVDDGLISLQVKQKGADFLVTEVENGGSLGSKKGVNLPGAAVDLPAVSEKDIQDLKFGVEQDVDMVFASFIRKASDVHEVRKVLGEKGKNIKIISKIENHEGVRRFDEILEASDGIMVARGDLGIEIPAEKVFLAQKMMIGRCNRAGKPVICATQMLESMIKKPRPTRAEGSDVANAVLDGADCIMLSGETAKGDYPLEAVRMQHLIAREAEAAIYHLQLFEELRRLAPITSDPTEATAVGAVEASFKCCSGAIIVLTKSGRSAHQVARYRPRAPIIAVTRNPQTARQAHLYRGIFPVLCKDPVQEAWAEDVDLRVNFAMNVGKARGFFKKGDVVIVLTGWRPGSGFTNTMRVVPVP", "assay": "Tryptophan (Trp) intrinsic fluorescence assay of PKM2", "type": "binding", "details": "1 µM PKM2, 30 min at RT; read-out: Kd (quenching of PKM2 intrinsic fluorescence)"}, "[3]": {"target": "T2, ENO1 (Homo sapiens, UniProt P06733)", "T2 sequence (P06733 whole entry)": "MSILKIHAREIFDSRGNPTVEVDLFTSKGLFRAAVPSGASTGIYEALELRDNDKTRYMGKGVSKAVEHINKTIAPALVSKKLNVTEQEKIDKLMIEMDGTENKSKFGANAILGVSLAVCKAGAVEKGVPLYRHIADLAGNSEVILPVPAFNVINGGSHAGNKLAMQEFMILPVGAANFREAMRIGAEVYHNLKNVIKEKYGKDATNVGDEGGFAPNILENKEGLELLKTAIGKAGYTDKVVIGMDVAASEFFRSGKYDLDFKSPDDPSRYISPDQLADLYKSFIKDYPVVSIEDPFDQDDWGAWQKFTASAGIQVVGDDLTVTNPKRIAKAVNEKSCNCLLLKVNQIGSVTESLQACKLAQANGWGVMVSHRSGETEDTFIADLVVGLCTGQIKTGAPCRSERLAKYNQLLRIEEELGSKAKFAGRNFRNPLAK", "assay": "In vitro ENO1 activity assay (2-PGA to PEP, absorbance at 240 nm)", "method": "Background signals induced by reaction solutions containing salicylates and 2-PGA, but without ENO1, were subtracted to calculate ΔOD240. […] Percent inhibition was calculated by monitoring the ΔOD240 at 5 min with or without salicylates. Data are mean ± SD (n = 3). Experiments were repeated three times with similar results.\nThe catalytic activity of ENO1 was tested as previously described with minor modifications[80]. Briefly, increasing concentrations of salicylates were incubated with 0.1 µM ENO1 for 30 min at RT in reaction buffer (10 mM KCl, 5 mM MgSO4, 100 mM triethanolamine pH 7.4)."}, "[4]": {"target": "T1, PKM2", "assay": "Thermal stability assay of PKM2 with salicylates", "type": "binding", "details": "2 µM PKM2, Tm 42 °C without ligand"}, "[5]": {"tested_on": "HEK293 cells", "assay": "In vivo glycolytic activity assay (extracellular lactate)", "type": "cell-based, human", "details": "for Reduction of extracellular lactate levels: 15 hrs", "method": "Data are mean ± SD (n = 3).\nGlycolytic activity of HEK293 cells in the absence or presence of different concentrations of salicylates was measured by monitoring the level of lactate produced[33],[34]. HEK293 cells were seeded in 96-well tissue culture plates at a density of 10^4 cells/well in 120 µL of complete medium (DMEM medium supplemented with 10% heat-inactivated FBS). Plates were incubated overnight in a CO2 incubator at 37 °C. […] Following a 15 hr incubation in a CO2 incubator at 37 °C, cellular supernatants were collected and lactate levels were measured by colorimetry according to the manufacturer’s instructions for a glycolysis cell-based assay kit (Cayman, Ann Arbor, Michigan)."}, "[6]": {"target": "T2, ENO1", "details": "read-out: Kd (quenching of ENO1 intrinsic fluorescence); 1 µM ENO1, 30 min at RT", "method": "For the Trp intrinsic fluorescence assay, different concentrations of salicylates were incubated with 1 µM ENO1 for 30 min at RT, then Trp emission fluorescence was obtained (excitation/emission = 295 nm/350 nm). […] Data are mean ± SD (n = 3). Experiments were repeated three times with similar results.\nBinding of salicylates to ENO1 and PKM2 was assessed using a Trp intrinsic fluorescence assay as previously described[79].\nA Trp intrinsic fluorescence assay was used to examine the binding of salicylates to ENO1\nThe final concentration of each protein was 1 μM in phosphate-buffered saline (PBS) buffer. The mixtures were subjected to excitation wavelength of 295 nm and the Trp emission fluorescence was recorded at 350 nm using a LS55 fluorescence spectrometer (Perkin Elmer). All data were obtained in triplicate and averaged."}, "[7]": {"target": "T1, PKM2", "assay": "In vitro PKM activity assay (LDH-coupled, NADH to NAD+), PKM2", "type": "biochemical", "details": "1.3 ng/µL PKM2", "experimental": "PK activity was measured using a method described previously with minor modifications. In brief, PK activity was measured by monitoring pyruvate-dependent conversion of NADH to NAD^+ by lactate dehydrogenase (LDH). Increasing concentrations of salicylates were incubated with PKM2 (final concentration 1.3 ng/uL) for 30 min at RT in the incubation buffer (50 mM Tris-HCl, pH 7.5, 100 mM KCl, 5 mM MgCl2) before mixing with 1/10 volume of 10X pyruvate kinase reaction buffer (500 mM Tris-HCl, pH 7.5, 500 mM KCl, 50 mM MgCl2, 5 mM PEP (Sigma-Aldrich, P0564), 6 mM ADP (Sigma-Aldrich, A5285), 80 units LDH (Sigma-Aldrich, L1254), 10 mM DTT, and 1.80 mM NADH (SigmaAldrich, N8129))."}, "[8]": {"target": "T2, ENO1", "assay": "Thermal stability assay of ENO1 with salicylates", "details": "2 µM ENO1, Tm 44 °C in the absence of SA or amoB1", "method": "Data are mean ± SD (n = 3). Experiments were repeated three times with similar results.\nThermal stability assay was performed with ENO1 and PKM2 as previously described with minor modifications[7].\nA thermal stability assay was used to examine the binding activities of ENO1 and PMK2 with salicylates as previously described with minor modifications 6. Purified ENO1 and\nfinal concentration of each protein was 2 μM in 16 μl of reaction buffer (0.1 M HEPES, pH 7.5, 150 mM NaCl, and 5 mM BME). Four μl of a 1:200 dilution of stock SYPRO orange dye (Invitrogen) in reaction buffer was added to achieve a total reaction volume of 20 μl. Thermal melt curves were obtained by heating the protein from 20–95°C and monitoring fluorescence at 590 nm with a CFX96 Real-Time PCR Detection System (Bio-Rad). All curves were obtained in triplicate and averaged."}, "[9]": {"details": "resulting from the required aspirin dosage; cited from earlier work"}, "[10]": {"target": "maltose-binding protein (MBP) (Escherichia coli, UniProt P0AEX9)", "assay": "Thermal stability assay of maltose-binding protein (negative control protein)", "details": "10 mM SA"}, "[11]": {"target": "PKM1 (Homo sapiens, UniProt P14618)", "sequence (P14618 1-531 isoform P14618-2, species assumed)": "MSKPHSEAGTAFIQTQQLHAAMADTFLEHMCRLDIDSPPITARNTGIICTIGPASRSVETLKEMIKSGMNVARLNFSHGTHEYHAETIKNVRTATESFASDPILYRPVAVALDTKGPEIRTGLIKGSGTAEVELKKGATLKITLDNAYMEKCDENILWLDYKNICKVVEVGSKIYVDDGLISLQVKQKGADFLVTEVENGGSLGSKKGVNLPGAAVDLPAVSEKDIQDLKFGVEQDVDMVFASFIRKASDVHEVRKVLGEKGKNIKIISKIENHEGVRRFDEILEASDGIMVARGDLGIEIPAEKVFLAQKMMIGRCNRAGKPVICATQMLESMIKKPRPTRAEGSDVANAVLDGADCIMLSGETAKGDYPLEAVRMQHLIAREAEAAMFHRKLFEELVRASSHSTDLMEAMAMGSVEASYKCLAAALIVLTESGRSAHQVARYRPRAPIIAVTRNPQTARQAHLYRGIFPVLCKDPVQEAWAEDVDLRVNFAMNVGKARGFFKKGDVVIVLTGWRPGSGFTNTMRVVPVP", "assay": "In vitro PKM activity assay, PKM1", "type": "biochemical", "details": "SA 0.4 mM"}}, "note": "Like-named read-outs stand apart in the source and are kept apart here."}
{"smiles": "COc1cc(CCc2ccccc2)c(C(=O)O)c(O)c1C/C=C(\\C)CCC=C(C)C", "note": "[amoB1, amorfrutin B1]", "values": [{"measurement": "Concentration at which cell deformation was observed", "setting": "[1]", "value": "above 2 µM"}, {"measurement": "Concentration with no visible morphological changes of cells", "setting": "[1]", "value": "Up to 2 µM"}, {"measurement": "Kd", "setting": "[2]", "value": 3.2, "unit": "µM"}, {"measurement": "Potency of ENO1 inhibition relative to SA (times stronger than SA)", "setting": "[3]; ratio of IC50 values", "value": "~ 84 times"}, {"measurement": "IC50", "setting": "[3]; read-out: IC50 for ENO1 enzymatic activity, 0.1 µM ENO1, […] 2-PGA, ΔOD240 at 5 min", "value": 15.4, "unit": "µM"}, {"measurement": "Tm of PKM2", "setting": "[4]; 5 µM amoB1", "value": 42.4, "unit": "°C"}, {"measurement": "Extracellular lactate levels", "setting": "[5]; 20–50 µM amoB1, 15 hr", "value": "drastically reduced"}, {"measurement": "Extracellular lactate levels", "setting": "[5]; amoB1 up to 10 µM, 15 hr", "value": "not substantially altered"}, {"measurement": "Kd", "setting": "[6]", "value": 26.9, "unit": "µM"}, {"measurement": "IC50", "setting": "[7]", "value": 15.2, "unit": "µM"}, {"measurement": "Tm of ENO1", "setting": "[8]; 12.5 µM amoB1", "value": 45.1, "unit": "°C"}]}
{"smiles": "O=C(O)c1ccccc1O", "note": "[SA, Salicylic acid]", "values": [{"measurement": "Concentration at which cells were substantially smaller and more spherical", "setting": "[1]", "value": "≥ 20000", "unit": "µM"}, {"measurement": "Concentration with no detectable morphological deformation of cells", "setting": "[1]; microscope", "value": "up to 10 mM"}, {"measurement": "IC50", "setting": "[3]", "value": 1300, "unit": "µM"}, {"measurement": "SA in the plasma for analgesic/antipyretic effects", "setting": "[9]", "value": "~ 0.5 mM"}, {"measurement": "Tm of PKM2", "setting": "[4]; 5 mM SA", "value": 41, "unit": "°C"}, {"measurement": "Reduction of extracellular lactate levels", "setting": "[5]; 0.5 mM SA", "value": 12, "unit": "%"}, {"measurement": "Reduction of extracellular lactate levels", "setting": "[5]; 1.0 mM SA", "value": 27, "unit": "%"}, {"measurement": "inhibition at 400 µM", "setting": "[7]; 400 µM SA", "value": "≤ 40", "unit": "%"}, {"measurement": "Tm of ENO1", "setting": "[8]; 5 mM SA", "value": 43.0, "unit": "°C"}, {"measurement": "Tm of MBP", "setting": "[10]", "value": "not altered"}, {"measurement": "Effect on PKM1 enzymatic activity", "setting": "[11]", "value": "did not alter"}]}
